Measured values as given in article PMC4915154, “Development of background-free tame fluorescent probes for intracellular live cell imaging” (Nature Communications, 2016).

How the values were obtained:
U-2 OS cells = assay: Cell viability assay (MTS); format: cell-based, human; conditions: 0-10 μM, 1-16 h
Protocol: Cell viability was assessed using MTS assay kit (Promega). 1 × 10^5 U-2 OS cells were seeded on 10 mm culture dishes; cells were stained with or without CO-1 ([…]) for 1–16 h. After incubation, the MTS reagent was added and incubated for 4 h at 37 °C. Absorbance was determined at 490 nm using SpectraMax M2 plate reader.
Supplementary Figure 18 Cell viability test for CO-1.
Cell viability was measured by MTS assay for concentration of probe at 0 μM, 0.3 μM, 1 μM, 3 μM and 10 μM in 1 hour, 4 hours and 16 hours incubation in U-2 OS cells. Absorbance was determined at 490 nm. Each absorbance value was subtracted with blank sample (blank sample = cells containing compound at respective concentration without MTS reagent). Cell viability was calculated by: (viable cells)% = (OD of treated sample/OD of untreated sample)×100. Data are presented as the means + SD obtained from triplicate experiments.
(also on this page, place not known: 25 50 75 100 hour (%) Incubation time CO-1 0 μM μM μM 0 0.3 1 3 μM 10 μM 1 4 hours 16 hours U -2 ( blank reagent) . Cell viability)
(§1) (1 picture or pasted object on this page, not shown here)

[1] = Photostability measurements; format: physicochemical; conditions: 10 μM in PBS buffer pH 7.4 with 1% DMSO, intensive radiation of strong light source
Protocol: 10 μM of CO-1 solution in PBS buffer (pH 7.4) containing 1% DMSO were placed in a 96-well plates. Fluorescence measurement were recorded every 30 s interval for a total period of 12 h (Ex/Em=490/520) under a xenon flashlamp. For harsh condition experiment, photostability test was done under high intensity UV lamp (Blak Ray, 100 W, 365 nm). Plates were irradiated for 10 min up to 2.5 h at 10 cm distance.
Supplementary Figure 17 Photostability analysis of CO-1.
10 μM CO-1 solution in PBS buffer (pH 7.4) containing 1% DMSO were placed in a 96-well plates. (a) Fluorescence measurement were recorded every 30 seconds interval for a total period of 12 hours (Ex/Em = 490/520) under a xenon flashlamp. (b) Photostability test under high intensity UV lamp (Blak Ray, 100W, 365 nm). Plates were irradiated for 10 minutes up to 2.5 hours at 10 cm distance. Values are represented as means (n=3) and fitted to a non-linear regression one-phase exponential decay (GraphPad Prism 5.0)
as §1

[2] = test system: human histone H2B (H2B-mKate2 fusion with Azi at site 16) in U-2 OS cells; assay: Histone H2B imaging in live cells (Azi incorporated in H2B-mKate2); format: cell-based; conditions: live U-2 OS cells, 10 μM, 37 °C
Description: The red fluorescent protein mKate2 was fused to the C terminus of human histone H2B as a red fluorescent marker. Using the in vivo unnatural amino acid (UAA) technology,[27][28] an azide-bearing UAA, p-azido-L-phenylalanine (Azi), was site-specifically incorporated at site 16 of mKate2 of the fusion protein H2B-mKate2, which was expressed in live U-2 OS cells. The cells were labelled with CO-1, washed to remove unreacted CO-1, and then imaged with laser scanning confocal microscopy.
U-2 OS cells were transfected with 1 μg DNA of each plasmid using Lipofectamine2000 in 35 mm glass bottom dishes according to the manufacturer protocol. Azi (purchased from Bachem) was added 1 h before transfection at a final concentration of 0.5 mM. Plasmid pIre-Azi3 (expressing the orthogonal amber suppressor transfer RNA (tRNA) and the E2AziRS specific for Azi) was co-transfected with plasmid pmH2B-6-mKate2-16tag in a 1:1 molar ratio. After 24 h, cells were washed three times with culture medium (DMEM with 10% FBS) (15 min each time). Growth media containing 10 μM CO-1 was then added to the dishes, and cells were incubated at 37 °C for 90 min followed by 4 times washing with growth media (30 min each time). Laser scanning confocal microscopy (Zeiss LSM 700) was used for imaging. The same conditions and settings were used for imaging control and experimental cells.
U-2 OS cells were transfected with plasmid pmH2B-6-mKate2. After 24 hours, cells were
labeled with 10 μM CO-1 for 90 minutes at 37 °C. Cells were washed to remove the unreacted
CO-1 and then imaged for mKate2 (red) and CO-1 (green) signals. Scale bar, 5 μm.
as §1

[3] = Spectroscopic properties (absorbance, emission, extinction coefficient, quantum yield); format: physicochemical; conditions: 10 μM in DMSO
Protocol: Supplementary Table 9. Spectrocopic properties and purity table for CO-1 and CO-1H.
Calculated mass, experimental mass, absorbance maximum (λabs), fluorescent emission maximum (λem), extinction coefficient (ε), quantum yield (Φ), and purity. mass m/z λabs λem ε Purity […]
Absorbance and fluorescence emission data were recorded by a Synergy 4, Biotek Inc. fluorescent plate reader at 10 μM concentration in DMSO in 96-well plates. HRMS a: found mass (M-H), b: tetramethyl BODIPY was used as standard, c: purity data was calculated on the basis of the integration in HPLC trace at 254 nm.

Q: Which “Cell viability / toxicity” value (U-2 OS cells) does the source give for `Cc1cc(C)n2c1C(CCNC(=O)CCC(=O)OCC1C3CCC#CCCC31)=C1C=CC=[N+]1[B-]2(F)F` (stereo not drawn) [CO-1] here?
A: The value was “nontoxic and did not interfere with cell proliferation”.

Q: What about the Photostability [1] of the same compound?
A: Its Photostability is “superior photostability”.

Q: And the “Labelling of Azi-bearing histone H2B-mKate2” value ([2]; 90 min)?
A: Its value is “specific labelling of histone H2B”.

Q: What about the Nuclear membrane permeability ([2]; 90 min) of the same compound?
A: The Nuclear membrane permeability was “pass through nuclear membrane”.

Q: What about the “Labelling of wild type H2B-mKate2 (control without Azi)” value ([2]; 90 minutes) of the same compound?
A: Its value is “did not label wild type H2B-mKate2”.

Q: And the ε [3]?
A: The ε was 66668 M⁻¹ cm⁻¹.

Q: And the λabs [3]?
A: Its λabs is 490 nm.

Q: What about the λem [3] of the same compound?
A: Its λem is 510 nm.

Q: What about the “QY (Φ)” value ([3]; tetramethyl BODIPY as standard) of the same compound?
A: Its value is 0.66.
